Source: patent US20090169585A1, “Resveratrol-Containing Compositions And Their Use In Modulating Gene Product Concentration Or Activity” (Resveratrol Partners, LLC, priority 2003, published 2009)
Like-named read-outs stand apart in the source and are kept apart here.

Legend:
injected tumors = conditions: mice with injected tumors; cited from earlier work
rhabdomyosarcoma cells = conditions: low dosage; cited from earlier work
[1] = tested on: human umbilical vein epithelial cells; conditions: of 10,000 genes probed; cited from earlier work
[2] = tested on: expression of 20,341 genes in brain tissue; assay: Gene expression in brain tissue; type: in vivo, mice
[3] = tested on: genes involved in 220 biological processes; assay: Biochemical pathways / biological processes affected (Table 5); type: in vivo, mice
[4] = tested on: genes of the oxidative phosphorylation pathway (GO:0006119); assay: Cardiac gene expression array: oxidative phosphorylation genes; type: in vivo, mice; conditions: mouse cardiac tissue vs control
[5] = 1100 IU, 4-year period; cited from earlier work
breast cancer cells = conditions: cited from earlier work
[6] = 3500 IU per day; cited from earlier work
[7] = 2000 IU per day; cited from earlier work

O=P(O)(O)OC1C(OP(=O)(O)O)C(OP(=O)(O)O)C(OP(=O)(O)O)C(OP(=O)(O)O)C1OP(=O)(O)O (centres unmarked) [IP6, (2,3,4,5,6-pentaphosphonooxycyclohexyl) dihydrogen phosphate]
tumor size vs non-treated mice (injected tumors): 50 times smaller
suppression of growth of rhabdomyosarcoma cells (rhabdomyosarcoma cells): 50%

COc1cc(/C=C/C(=O)O)ccc1O [ferulic acid]
genes with greater than 2-fold down-regulation [1]: 363 genes
genes with greater than 2-fold up-regulation [1]: 233 genes

O=c1c(O)c(-c2ccc(O)c(O)c2)oc2cc(O)cc(O)c12 [quercetin, 3,3′,4′,5,7-pentahydroxy-2-phenylchromen-4-one]
genes with greater than 2-fold down-regulation [1]: 363 genes
genes with greater than 2-fold up-regulation [1]: 233 genes

Oc1ccc(/C=C/c2cc(O)cc(O)c2)cc1 [resveratrol, 3,4′,5-trihydroxy-trans-stilbene]
number of genes exhibiting altered expression ([2]; animals receiving only this treatment, P<0.01): 424 genes
number of genes exhibiting altered expression ([2]; resveratrol and calorie reduced diet): 10 genes
Genes changed: Telomere Maintenance ([3]; GO: 0000723, 17 genes in series, P<0.05): 3
Genes changed: Endochondral Ossification ([3]; GO: 0001958, 8 genes in series, P<0.05): 2
Genes changed: Carbohydrate Metabolic Process ([3]; GO: 0005975, 316 genes in series, P<0.05): 21
Genes changed: Polysaccharide Metabolic Process ([3]; GO: 0005976, 42 genes in series, P<0.05): 9
Genes changed: Glycogen Metabolic Process ([3]; GO: 0005977, 31 genes in series, P<0.05): 7
Genes changed: Generation Of Precursor Metabolites And Energy ([3]; GO: 0006091, 390 genes in series, P<0.05): 24
Genes changed: Energy Reserve Metabolic Process ([3]; GO: 0006112, 35 genes in series, P<0.05): 7
Genes changed: DNA Repair ([3]; GO: 0006281, 178 genes in series, P<0.05): 13
Genes changed: Transcription Termination ([3]; GO: 0006353, 6 genes in series, P<0.05): 2
Genes changed: Translation ([3]; GO: 0006412, 338 genes in series, P<0.05): 25
Genes changed: Translational Initiation ([3]; GO: 0006413, 40 genes in series, P<0.05): 6
Genes changed: Regulation Of Translational Initiation ([3]; GO: 0006446, 20 genes in series, P<0.05): 4
Number of genes affected: Protein Folding ([3]; GO: 0006457, 124 genes in series, P<0.05): 13
Genes changed: Ubiquitin-Dependent Protein Catabolic Process ([3]; GO: 0006511, 109 genes in series, P<0.05): 9
Genes changed: Ubiquitin Cycle ([3]; GO: 0006512, 356 genes in series, P<0.05): 27
Genes changed: Polyamine Biosynthetic Process ([3]; GO: 0006596, 5 genes in series, P<0.05): 2
Genes changed: Protein Targeting ([3]; GO: 0006605, 161 genes in series, P<0.05): 12
Genes changed: Protein Targeting To Peroxisome ([3]; GO: 0006625, 5 genes in series, P<0.05): 2
Genes changed: Copper Ion Transport ([3]; GO: 0006825, 9 genes in series, P<0.05): 3
Genes changed: Intracellular Protein Transport ([3]; GO: 0006886, 357 genes in series, P<0.05): 26
Genes changed: ER To Golgi Vesicle-Mediated Transport ([3]; GO: 0006888, 16 genes in series, P<0.05): 3
Genes changed: Caspase Activation ([3]; GO: 0006919, 16 genes in series, P<0.05): 3
Genes changed: Response To DNA Damage Stimulus ([3]; GO: 0006974, 217 genes in series, P<0.05): 15
Genes changed: ER Overload Response ([3]; GO: 0006983, 5 genes in series, P<0.05): 2
Number of genes affected: Organelle Organization And Biogenesis ([3]; GO: 0006996, 897 genes in series, P<0.05): 53
Number of genes affected: Cytoskeleton Organization And Biogenesis ([3]; GO: 0007010, 403 genes in series, P<0.05): 26
Genes changed: Microtubule-Based Process ([3]; GO: 0007017, 155 genes in series, P<0.05): 12
Number of genes affected: Microtubule-Based Movement ([3]; GO: 0007018, 72 genes in series, P<0.05): 9
Genes changed: Mitotic Metaphase/Anaphase Transition ([3]; GO: 0007091, 8 genes in series, P<0.05): 2
Genes changed: Female Meiosis ([3]; GO: 0007143, 8 genes in series, P<0.05): 2
Genes changed: Transmembrane Receptor Protein Serine/Threonine Kinase Signaling Pathway ([3]; GO: 0007178, 75 genes in series, P<0.05): 7
Genes changed: Small Gtpase Mediated Signal Transduction ([3]; GO: 0007264, 320 genes in series, P<0.05): 22
Number of genes affected: Regulation Of Actin Polymerization And/Or Depolymerization ([3]; GO: 0008064, 30 genes in series, P<0.05): 4
Genes changed: Protein Localization ([3]; GO: 0008104, 663 genes in series, P<0.05): 38
Number of genes affected: Actin Polymerization And/Or Depolymerization ([3]; GO: 0008154, 39 genes in series, P<0.05): 6
Genes changed: Isoprenoid Biosynthetic Process ([3]; GO: 0008299, 19 genes in series, P<0.05): 3
Genes changed: RNA Splicing ([3]; GO: 0008380, 162 genes in series, P<0.05): 12
Genes changed: Biosynthetic Process ([3]; GO: 0009058, 979 genes in series, P<0.05): 60
Genes changed: Macromolecule Biosynthetic Process ([3]; GO: 0009059, 525 genes in series, P<0.05): 35
Genes changed: Protein Transport ([3]; GO: 0015031, 581 genes in series, P<0.05): 38
Genes changed: Modification-Dependent Protein Catabolic Process ([3]; GO: 0019941, 111 genes in series, P<0.05): 9
Number of genes affected: Actin Filament Polymerization ([3]; GO: 0030041, 17 genes in series, P<0.05): 3
Number of genes affected: Regulation Of Actin Filament Length ([3]; GO: 0030832, 31 genes in series, P<0.05): 4
Genes changed: Cellular Response To Stress ([3]; GO: 0033554, 14 genes in series, P<0.05): 3
Genes changed: Positive Regulation Of Enzyme Activity ([3]; GO: 0043085, 40 genes in series, P<0.05): 5
Genes changed: Positive Regulation Of Caspase Activity ([3]; GO: 0043280, 17 genes in series, P<0.05): 3
Genes changed: Regulation Of Caspase Activity ([3]; GO: 0043281, 27 genes in series, P<0.05): 5
Genes changed: Cellular Biosynthetic Process ([3]; GO: 0044249, 710 genes in series, P<0.05): 45
Genes changed: Cellular Carbohydrate Metabolic Process ([3]; GO: 0044262, 221 genes in series, P<0.05): 18
Genes changed: Establishment Of Protein Localization ([3]; GO: 0045184, 610 genes in series, P<0.05): 38
Genes changed: Interferon Type I Biosynthetic Process ([3]; GO: 0045351, 6 genes in series, P<0.05): 2
Genes changed: Cell Redox Homeostasis ([3]; GO: 0045454, 40 genes in series, P<0.05): 6
Genes changed: Regulation Of B Cell Differentiation ([3]; GO: 0045577, 8 genes in series, P<0.05): 2
Genes changed: Positive Regulation Of JNK Cascade ([3]; GO: 0046330, 8 genes in series, P<0.05): 2
Number of genes affected: Intracellular Transport ([3]; GO: 0046907, 523 genes in series, P<0.05): 43
Genes changed: Golgi Vesicle Transport ([3]; GO: 0048193, 37 genes in series, P<0.05): 6
Genes changed: Epithelial Cell Proliferation ([3]; GO: 0050673, 30 genes in series, P<0.05): 4
Number of genes affected: Regulation Of Catalytic Activity ([3]; GO: 0050790, 241 genes in series, P<0.05): 21
Genes changed: Barbed-End Actin Filament Capping ([3]; GO: 0051016, 17 genes in series, P<0.05): 3
Number of genes affected: Protein Polymerization ([3]; GO: 0051258, 32 genes in series, P<0.05): 6
Number of genes affected: Establishment Of Cellular Localization ([3]; GO: 0051649, 653 genes in series, P<0.05): 45
biological processes with affected genes ([3]; resveratrol to calorie restricted mice): failed to affect any genes in any of these processes
share of the 220 biological processes with affected genes ([3]; this treatment, P<0.05): 10%
FC Cox4i2 [4]: 1.50
FC Ndufaf1 [4]: −1.20
FC Ndufc1 [4]: 1.20
FC Ndufc2 [4]: −1.30
FC Ndufs2 [4]: 1.10

C=C1CC[C@H](O)C/C1=C/C=C1\CCC[C@]2(C)[C@@H]([C@H](C)CCCC(C)C)CC[C@@H]12 [vitamin D3, cholecalciferol]
reduction in cancer risk [5]: 60-77%
reduction of the number of breast cancer cells (breast cancer cells; higher concentrations of vitamin D3 alone, lab dish): about 25%
reduction of the number of breast cancer cells (breast cancer cells; higher concentrations of vitamin D3 combined with resveratrol): 50%
breast tumor cell growth (breast cancer cells; low-dose vitamin D3 alone): does not reduce breast tumor cell growth
decline of tumor cell numbers (breast cancer cells; low-dose vitamin D3 combined with resveratrol): 40%

vitamin D
risk for breast cancer [6]: halved
risk of colon cancer [7]: halved
